From PMC6063323, “Synthesis, radiosynthesis, in vitro and first in vivo evaluation of a new matrix metalloproteinase inhibitor based on γ-fluorinated α-sulfonylaminohydroxamic acid” (EJNMMI Radiopharmacy and Chemistry, 2018)
Read-outs that look alike come from different tables or passages of the source. One block for each molecule: values may come before it.

How the values were obtained:
[1] = system: MMP-2; settings: cited from earlier work
[2] = system: MMP-9; settings: cited from earlier work
[3] = in vivo biostability and metabolism study (radio-HPLC of plasma, urine and tissue homogenates); parameters: species or system OCR (CD1) wild type mice; settings: 30 min p.i., mouse
Description: Approximately 11.1 MBq (S)-[^18F]9a (in a maximum volume of 200 μL) was injected into three mice each via tail vein injection. The animals were sacrificed at 30 min p.i.. Whole blood was obtained, weighed, and centrifuged at 3000 rpm (3 min) to isolate plasma. Urine was also collected. The muscle, brain, kidneys, and liver were harvested and homogenized in lysis buffer (1% SDS in PBS buffer). An aliquot of each sample (400 μL) was subsequently removed, mixed with 400 μL of acetonitrile and 100 μL of 3% acetic acid in acetonitrile, vigorously mixed, and placed on dry ice for 3 min. After thawing, the samples were centrifuged at 13000 rpm (8 min) to allow for the separation of supernatant from the pellet. The supernatant was then removed and assayed for radioactivity in a PerkinElmer Wizard γ-counter (20 s). The samples were analyzed by HPLC, using a γ-detector (Raytest GmbH/Agilent). HPLC was done on a Phenomenex C18 column (250 mm × 4.6 mm) using a gradient method with acetonitrile and water (both having 0.05% TFA).
An in vivo biostability and metabolism study was performed in three 10-month old female OCR (CD1) wild type mice 30 min p.i.

[4] = small animal PET in vivo biodistribution after intravenous injection; parameters: species or system C57/BL6 mice
Description: Adult C57/BL6 mice (male, 21–23 g) were anesthetized by isoflurane/O2, and one lateral tail vein was cannulated using a 27 Ga needle connected to 15 cm polyethylene catheter tubing. (S)-[^18F]9a (500 kBq/g bodyweight) was injected as a bolus (50 μL of compound flushed with 100 μL of saline) via the tail vein, and subsequent PET scanning was performed.
PET experiments were carried out using a sub-millimeter high resolution (0.7 mm full width at half maximum) small animal scanner (32 module quadHIDAC, Oxford Positron Systems Ltd., Oxford, UK) with uniform spatial resolution (< 1 mm) over a large cylindrical field (165 mm diameter, 280 mm axial length) (Schäfers et al. [2005]).
List-mode data were acquired for 120 min and reconstructed into dynamic time frames using an iterative reconstruction algorithm. Subsequently, the scanning bed was transferred to the computed tomography (CT) scanner (Inveon, Siemens Medical Solutions, U.S.) and a CT acquisition with a spatial resolution of 80 μm was performed for each mouse. Reconstructed image data sets were co-registered based on extrinsic markers attached to the multimodal scanning bed and the image analysis software (Inveon Research Workplace 3.0, Siemens Medical Solutions, USA). Three-dimensional volumes of interest (VOIs) were defined over the respective organs in CT data sets, transferred to the co-registered PET data and analyzed quantitatively. Regional uptake was calculated as percentage of injected dose by dividing counts per milliliter in the VOI by total counts in the mouse multiplied by 100 (%ID/mL). Routes of tracer elimination were assessed by VOI segmentation of kidneys and bladder (renal route), and liver, gall bladder, small and large intestine (hepatobiliary route). Total activity for each route was calculated as percentage of injected dose by dividing the total counts in the respective VOI by total counts in the mouse multiplied by 100 (%ID).
Maximum intensity projections (MIPs) of the whole body in vivo biodistribution of tracer-associated radioactivity in an adult C57/Bl6 mouse 0–2, 2–5, 5–10, 20–30 and 80–90 min after intravenous injection of (S)-[^18F]9a are shown in Fig. 3.

[5] = water/octanol partition coefficient logD (exp.); assay type: physicochemical; settings: for logD: 1-octanol/PBS pH 7.4, determined for (S)-[^18F]9a
Description: The lipophilicity of the radioligand (S)-[^18F]9a was assessed by determination of the water/octanol partition coefficients following a published procedure (Prante et al. [2006]). In brief, approximately 20 kBq of (S)-[^18F]9a were mixed with equal amounts (0.5 mL) of PBS (pH 7.4) and 1-octanol and the resulting biphasic system was mixed vigorously for 1 min at rt. The tubes were centrifuged (3000 rpm, 2 min) and 400 μL of the octanol phase were separated and again mixed with equal amounts (400 μL) of PBS. The resulting biphasic system was again mixed vigorously of 1 min at rt. After centrifugation (3000 rpm, 2 min) three samples of 100 μL of each layer were counted in a gamma counter (Wallac Wizard, Perkin-Elmer Life Science). The partition coefficient was determined by calculating the ratio cpm(octanol)/cpm(PBS) and expressed as logD (exp.) (log(cpmoctanol/cpmPBS)). Two independent experiments were performed in triplicate and data were provided as mean values ± standard deviation.
Radiosynthesis of the ^18F-labelled counterpart (S)-[^18F]9a was accomplished via direct nucleophilic substitution reaction of the tosylate precursor (S)-9b by [^18F]fluoride according to the synthesis described for [^18F]FEtO-CGS 25966 (Wagner et al. [2011]). The radiosynthesis provided (S)-[^18F]9a with radiochemical yields of 31–46% (n = 3), radiochemical purities of > 97% in 95–110 min from the end of radionuclide production and molar activities of 2.8–3.4 GBq/μmol after radiosynthesis. The experimental logD value of the radioligand was determined in phosphate-buffered saline (PBS) as already described (Prante et al. [2006]).

[6] = parameters: method as in Wagner et al., [2011]; settings: ref Wagner et al., [2011], cited from earlier work
[7] = target: activated MMP-9 (Homo sapiens, UniProt P14780); test: fluorometric in vitro MMP-9 inhibition assay; assay type: biochemical; settings: SD from three independent experiments; enzyme 2 nM, 37 °C, 30 min preincubation
Sequence of activated MMP-9 (P14780 107-707 limits assumed): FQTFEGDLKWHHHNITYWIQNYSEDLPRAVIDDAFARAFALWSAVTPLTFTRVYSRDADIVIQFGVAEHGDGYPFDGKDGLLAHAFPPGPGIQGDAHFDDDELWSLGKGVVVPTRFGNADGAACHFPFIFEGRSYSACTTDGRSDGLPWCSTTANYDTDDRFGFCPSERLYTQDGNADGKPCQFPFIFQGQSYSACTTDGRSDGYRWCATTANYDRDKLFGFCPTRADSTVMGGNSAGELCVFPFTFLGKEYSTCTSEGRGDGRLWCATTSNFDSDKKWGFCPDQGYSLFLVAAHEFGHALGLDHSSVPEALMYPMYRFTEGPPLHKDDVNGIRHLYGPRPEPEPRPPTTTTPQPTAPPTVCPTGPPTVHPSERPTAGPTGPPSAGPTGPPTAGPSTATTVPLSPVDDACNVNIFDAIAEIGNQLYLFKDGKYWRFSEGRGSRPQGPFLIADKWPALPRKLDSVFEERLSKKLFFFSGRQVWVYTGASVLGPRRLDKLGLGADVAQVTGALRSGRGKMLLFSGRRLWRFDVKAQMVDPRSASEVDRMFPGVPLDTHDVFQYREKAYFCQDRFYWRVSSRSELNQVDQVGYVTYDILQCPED
Description: (§1) The inhibition potencies of (R)-9a and (S)-9a against activated MMP-2 and -9 were assayed using the synthetic fluorometric substrate (7-methoxycoumarin-4-yl)acetyl-Pro-Leu-Gly-Leu-(3-(2,4-dinitrophenyl)-L-2,3-diaminopropionyl)Ala-Arg-NH2 (R&D Systems) as described previously (Huang et al. [1997]). Briefly, MMP-2 and -9 (each at 2 nM) and test compounds at varying concentrations (10 pM to 1 mM) in Tris (50 mM), pH 7.5, containing NaCl (0.2 M), CaCl2 (5 mM), ZnSO4 (20 μM), and 0.05% Brij 35 were preincubated at 37 °C for 30 min. An aliquot of substrate (10 μL of a 50 μM solution) was added to the enzyme inhibitor mixture (90 μL), and the fluorescence changes were monitored using a TriStar2 Multimode Reader LB 942, (Berthold) with excitation and emission wavelengths of 340 and 405 nm, respectively. Reaction rates were measured from the initial 10 min and plotted as a function of inhibitor concentration. From the resulting inhibition curves, the IC50 values were calculated by nonlinear regression analysis using the Grace 5.1.8 software (Linux).
(§2) The MMP inhibition potencies of the hydroxamic acids (R)-9a and (S)-9a (Fig. 2) against MMP-2 and -9 were measured by fluorometric in vitro inhibition assays, following the previously described procedure (Huang et al. [1997]).

[8] = target: T1, activated MMP-2 (Homo sapiens, UniProt P08253); test: fluorometric in vitro MMP-2 inhibition assay; assay type: biochemical; settings: SD from three independent experiments; enzyme 2 nM, 37 °C, 30 min preincubation
T1 sequence (P08253 110-660): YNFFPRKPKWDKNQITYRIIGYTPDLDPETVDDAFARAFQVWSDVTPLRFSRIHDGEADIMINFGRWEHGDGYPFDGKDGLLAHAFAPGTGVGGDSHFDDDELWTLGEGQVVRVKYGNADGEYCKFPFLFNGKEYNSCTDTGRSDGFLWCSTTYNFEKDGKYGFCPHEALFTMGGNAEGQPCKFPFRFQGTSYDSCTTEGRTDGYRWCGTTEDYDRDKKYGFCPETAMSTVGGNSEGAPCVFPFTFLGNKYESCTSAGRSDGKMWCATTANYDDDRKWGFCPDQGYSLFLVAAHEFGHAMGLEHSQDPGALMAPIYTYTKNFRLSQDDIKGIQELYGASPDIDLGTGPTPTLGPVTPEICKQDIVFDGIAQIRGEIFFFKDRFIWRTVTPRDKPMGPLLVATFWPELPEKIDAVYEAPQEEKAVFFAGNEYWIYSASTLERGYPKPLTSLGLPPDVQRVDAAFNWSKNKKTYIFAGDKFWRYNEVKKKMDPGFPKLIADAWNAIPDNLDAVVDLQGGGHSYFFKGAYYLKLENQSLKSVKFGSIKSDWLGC
Description: as §1, §2

[9] = Table 1, ref Mac Pherson et al. [1997], Scozzafava et al. 2000, Behrends et al. [2015], read-out: IC50 values MMP-2
[10] = ref Behrends et al., [2015], read-out: IC50 MMP-2
[11] = Table 1, ref Mac Pherson et al. [1997], Scozzafava et al. 2000, Behrends et al. [2015], read-out: IC50 values MMP-9
[12] = ref Behrends et al., [2015], read-out: IC50 MMP-9

Compound: C=C(F)C[C@@H](C(=O)NO)N(Cc1cccnc1)S(=O)(=O)c1ccc(OC)cc1 [(S)-2]
IC50 [1, 9]: 7.2 nM | IC50 [1, 10]: 7.2 ± 0.1 nM | IC50 [2, 11]: 4.9 nM | IC50 [2, 12]: 4.9 ± 0.4 nM

extent of metabolism in plasma (into four metabolites) [3]: about 92% | extent of metabolism in plasma, kidneys, urine, muscle and brain [3]: about 90% | share of radioactivity in brain ([3]; radio-HPLC): 12 % HPLC | share of radioactivity in kidney ([3]; radio-HPLC): 17 % HPLC | share of radioactivity in liver ([3]; radio-HPLC): 1 % HPLC | share of radioactivity in muscle ([3]; radio-HPLC): 17 % HPLC | share of radioactivity in plasma ([3]; radio-HPLC): 8 % HPLC | metabolism of the parent compound in urine ([3]; to four polar metabolites): complete metabolism | tracer remaining in non-excretion organs ([4]; 80–90 min p.i., mouse, i.v.): no significant tracer remaining | injected tracer activity cleared from the blood and tissues ([4]; 90 min post injection): 73% | defluorination in vivo (bone uptake of [^18F]fluoride ions) ([4]; entire dynamic imaging study, mouse): not observed | accumulation in brain, myocardium, lung and muscles (unspecific binding) ([4]; mouse, i.v., PET): not observed | clearance of tracer and metabolites by renal excretion ([4]; mouse, i.v., PET): 8% | clearance of tracer and metabolites through the liver and the gallbladder ([4]; mouse, i.v., PET): 92% | logD [5]: 1.16 | hydrophilicity in comparison to [^18F]FEtO-CGS25966 ([5]; from experimental logD values): 7 times
Compound: C=C(F)C[C@@H](C(=O)NO)N(Cc1ccccc1)S(=O)(=O)c1ccc(OCC[18F])cc1 [(S)-[^18F]9a, (S)-2-[N-Benzyl-4-(2-[^18F]fluoroethoxy)phenylsulfonamido]-4-fluoro-N-hydroxypent-4-enamide]

Compound: COc1ccc(S(=O)(=O)N(Cc2cccnc2)[C@H](CCF)C(=O)NO)cc1 [(R)-1]
IC50 [1, 9]: 6.4 nM | IC50 [2, 11]: 12.3 nM

Compound: CC(C)[C@H](C(=O)NO)N(Cc1ccccc1)S(=O)(=O)c1ccc(OCCF)cc1 [(R)-FEtO- CGS 25966]
IC50 ([1]; ref Wagner et al., [2011], read-out: IC50 MMP-2): 4 ± 3 nM | IC50 ([2]; ref Wagner et al., [2011], read-out: IC50 MMP-9): 50 ± 27 nM | logD (exp.) [6]: 2.02 ± 0.03 | logD (exp.) ([6]; listed as the analog derived from CGS 25966): 2.0

Compound: COc1ccc(S(=O)(=O)N(Cc2cccnc2)[C@@H](C(=O)NO)C(C)C)cc1 [(R)-CGS 27023A]
IC50 [1, 9]: 20 nM | IC50 [2, 11]: 8 nM

IC50 [7]: 0.5 ± 0.3 nM | IC50 [8]: 10.4 ± 5.9 nM
Compound: C=C(F)C[C@H](C(=O)NO)N(Cc1ccccc1)S(=O)(=O)c1ccc(OCCF)cc1 [(R)-9a]

IC50 [7]: 0.1 ± 0.01 nM | IC50 [8]: 0.3 ± 0.03 nM | logD [5]: 1.16 ± 0.2
Compound: C=C(F)C[C@@H](C(=O)NO)N(Cc1ccccc1)S(=O)(=O)c1ccc(OCCF)cc1 [(S)-9a, (S)-2-[N-Benzyl-4-(2-fluoroethoxy)phenylsulfonamido]-4-fluoro-N-hydroxypent-4-enamide]

Compound: COc1ccc(S(=O)(=O)N(Cc2cccnc2)[C@@H](CCF)C(=O)NO)cc1 [(S)-1]
IC50 [1, 9]: 32.8 nM | IC50 [2, 11]: 3 nM

Compound: C=C(F)C[C@H](C(=O)NO)N(Cc1cccnc1)S(=O)(=O)c1ccc(OC)cc1 [(R)-2]
IC50 [1, 9]: 9.3 nM | IC50 [1, 10]: 9.3 ± 2 nM | IC50 [2, 11]: 8.3 nM | IC50 [2, 12]: 8.3 ± 0.1 nM
